Experimental data published in patent US20130123357A1, “Methods for Providing Enhanced Resveratrol Activity Using 4-Acetoxy-Resveratrol” (BRIGHAM YOUNG UNIVERSITY, priority 2010, published 2013).
Marks after values point to notes of the source that are not given here.

Assays:
lysyl oxidase (LOX) = experiment: Gene array qPCR, human dermal equivalent: LOX; type: cell-based; conditions: 1.0% 4AR in DMSO, human skin equivalent, 24 hours, mRNA by qPCR
From the text: (§1) In this gene array experiment, we examined the ability of 4AR at a one percent concentration in DMSO (where 100% DMSO served as the vehicle) to either stimulate or inhibit several important genes and quantify directly the transcribed messenger RNA (mRNA) levels by Taqman real time PCR. The test material was placed onto a biological barrier (human dermal equivalent) using a MatTek “ready-to-use” in vitro organotypic tissue equivalent, based on well-documented and validated protocols, using the EpiDerm™ Model EPI-200 Kit. The MatTek kits uses normal (non-transformed) donated human cells as the basis for all of its tissue equivalents. These cells are grown (cultured) in standard Millipore Millicell™ Single Well Tissue Culture Plate Inserts at the air liquid interface or ALI. Apical (top) surface of tissue is exposed to air allowing for direct application of test articles. […] Once the 4 AR test material penetrated the human skin barrier equivalent the gene chip was activated and subsequently mRNA levels were quantified and the results represent stimulation or inhibition of a specific gene.
(§2) To investigate the effects of 4AR on the expression of genes associated with the extracellular matrix (ECM) of the skin, qPCR experiments were conducted using the tissue cultures (model system described above) with subsequent quantification of mRNA levels from […] tissue/cells. […]

[1] = biological target: T1, prostate type I 5α-reductase enzyme (Rattus norvegicus, UniProt P24008); experiment: Prostate 5α-reductase enzyme activity of treated rats; type: in vivo; conditions: DMSO controls 8.7 + 0.6
T1 construct: from tissue; host or cells: prostate of adult male Long-Evans rats dosed with 4AR for 21 days
T1 sequence (P24008 1-259): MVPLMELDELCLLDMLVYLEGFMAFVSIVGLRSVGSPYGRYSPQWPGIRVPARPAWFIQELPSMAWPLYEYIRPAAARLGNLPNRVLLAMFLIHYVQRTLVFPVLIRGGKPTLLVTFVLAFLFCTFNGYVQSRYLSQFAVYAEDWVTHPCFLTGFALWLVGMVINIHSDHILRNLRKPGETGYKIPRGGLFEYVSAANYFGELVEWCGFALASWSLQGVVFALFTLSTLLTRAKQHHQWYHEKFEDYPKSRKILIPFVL
Protocol: Adult male Long-Evans rats were administered 4AR for 21 days. DMSO served as the control and 4AR was dissolved into DMSO at the following concentrations: 5.0 mg/kg body weight, 20.0 mg/kg body weight and 90.0 mg/kg body weight (n=12 per group).
Since, the 5a-reductase enzyme (which converts testosterone to 5a-dihydrotestosterone) is important in prostate health in reference to benign prostatic hyperplasia (BPH) and the treatment and prevention of prostate cancer, we determined if prostate type I 5α-reductase enzyme activity was impacted by these treatments by quantifying the enzymatic rates of each animal as described above (in this study there were approximately 10 animals per treatment group).

[2] = test system: Procollagen III (alpha 1); experiment: Gene array qPCR, human dermal equivalent: Procollagen III; type: cell-based; conditions: 1.0% 4AR in DMSO, human skin equivalent, 24 hours, mRNA by qPCR
From the text: as §1, §2

Desmocollin 1 = experiment: Gene array qPCR, human dermal equivalent: Desmocollin 1; type: cell-based; conditions: 1.0% 4AR in DMSO, human skin equivalent, 24 hours, mRNA by qPCR
From the text: as §1, §2

[3] = test system: Superoxide dismutase 1, soluble; experiment: Gene array qPCR, human dermal equivalent: SOD1; type: cell-based; conditions: 1.0% 4AR in DMSO, human skin equivalent, 24 hours, mRNA by qPCR
From the text: as §1, §2

COX 2 (PTGS2) = experiment: Gene array qPCR, human dermal equivalent: COX 2; type: cell-based; conditions: 1.0% 4AR in DMSO, human skin equivalent, 24 hours, mRNA by qPCR
From the text: as §1, §2

Type IV collagen alpha 2 = experiment: Gene array qPCR, human dermal equivalent: Type IV collagen alpha 2; type: cell-based; conditions: 1.0% 4AR in DMSO, human skin equivalent, 24 hours, mRNA by qPCR
From the text: as §1, §2

Desmoglein 3 = experiment: Gene array qPCR, human dermal equivalent: Desmoglein 3; type: cell-based; conditions: 1.0% 4AR in DMSO, human skin equivalent, 24 hours, mRNA by qPCR
From the text: as §1, §2

[4] = test system: S100 Calcium binding protein A8; experiment: Gene array qPCR, human dermal equivalent: S100 A8; type: cell-based; conditions: 1.0% 4AR in DMSO, human skin equivalent, 24 hours, mRNA by qPCR
From the text: as §1, §2

[5] = test system: S100 Calcium binding protein A9; experiment: Gene array qPCR, human dermal equivalent: S100 A9; type: cell-based; conditions: 1.0% 4AR in DMSO, human skin equivalent, 24 hours, mRNA by qPCR
From the text: as §1, §2

[6] = test system: IL-1RII (interleukin 1RII); experiment: Gene array qPCR, human dermal equivalent: IL-1RII; type: cell-based; conditions: 1.0% 4AR in DMSO, human skin equivalent, 24 hours, mRNA by qPCR
From the text: as §1, §2

Metallothionein 2 = experiment: Gene array qPCR, human dermal equivalent: Metallothionein 2; type: cell-based; conditions: 1.0% 4AR in DMSO, human skin equivalent, 24 hours, mRNA by qPCR
From the text: as §1, §2

[7] = test system: TNFRSF1A (Tumor necrosis factor receptor superfamily, member 1A); experiment: Gene array qPCR, human dermal equivalent: TNFRSF1A; type: cell-based; conditions: 1.0% 4AR in DMSO, human skin equivalent, 24 hours, mRNA by qPCR
From the text: as §1, §2

IL-1a (interleukin 1a) = experiment: Gene array qPCR, human dermal equivalent: IL-1a; type: cell-based; conditions: 1.0% 4AR in DMSO, human skin equivalent, 24 hours, mRNA by qPCR
From the text: as §1, §2

[8] = test system: TGF (transforming growth factor) beta; experiment: Gene array qPCR, human dermal equivalent: TGF beta; type: cell-based; conditions: 1.0% 4AR in DMSO, human skin equivalent, 24 hours, mRNA by qPCR
From the text: as §1, §2

IL-6 (interleukin 6) = experiment: Gene array qPCR, human dermal equivalent: IL-6; type: cell-based; conditions: 1.0% 4AR in DMSO, human skin equivalent, 24 hours, mRNA by qPCR
From the text: as §1, §2

Laminin 1B = experiment: Gene array qPCR, human dermal equivalent: Laminin 1B; type: cell-based; conditions: 1.0% 4AR in DMSO, human skin equivalent, 24 hours, mRNA by qPCR
From the text: as §1, §2

IL-8 (interleukin 8) = experiment: Gene array qPCR, human dermal equivalent: IL-8; type: cell-based; conditions: 1.0% 4AR in DMSO, human skin equivalent, 24 hours, mRNA by qPCR
From the text: as §1, §2

Type IV collagen alpha 1 = experiment: Gene array qPCR, human dermal equivalent: Type IV collagen alpha 1; type: cell-based; conditions: 1.0% 4AR in DMSO, human skin equivalent, 24 hours, mRNA by qPCR
From the text: as §1, §2

Nerve growth factor = experiment: Gene array qPCR, human dermal equivalent: Nerve growth factor; type: cell-based; conditions: 1.0% 4AR in DMSO, human skin equivalent, 24 hours, mRNA by qPCR
From the text: as §1, §2

[9] = test system: Tissue Inhibitor of metalloproteinases 2 (TIMP2); experiment: Gene array qPCR, human dermal equivalent: TIMP2; type: cell-based; conditions: 1.0% 4AR in DMSO, human skin equivalent, 24 hours, mRNA by qPCR
From the text: as §1, §2

[10] = test system: Tissue inhibitor of metalloproteinases 1; experiment: Gene array qPCR, human dermal equivalent: TIMP1; type: cell-based; conditions: 1.0% 4AR in DMSO, human skin equivalent, 24 hours, mRNA by qPCR
From the text: as §1, §2

SMILES: CC(=O)Oc1ccc(C=Cc2cc(O)cc(O)c2)cc1 [4AR, 3,5-dihydroxy-4′-acetoxy stilbene]
- Lysyl oxidase increased by (lysyl oxidase (LOX)): 1.9-fold
- 5α-reductase enzyme activity ([1]; 5 mg/kg body weight): 4.6 + 0.4* pmol/hour incubation/mg of protein
- 5α-reductase enzyme activity ([1]; 20 mg/kg body weight): 3.3 + 0.3* pmol/hour incubation/mg of protein
- 5α-reductase enzyme activity ([1]; 90 mg/kg body weight): 2.0 + 0.2* pmol/hour incubation/mg of protein
- Procollagen III increased by [2]: by 2.2-fold
- Desmocollin 1 decreased by (Desmocollin 1): by 2.4-fold
- Superoxide dismutase 1, soluble increased by [3]: 1.6-fold
- COX 2 decreased by (COX 2 (PTGS2)): 1.7-fold
- IV collagen alpha 2 increased by (Type IV collagen alpha 2): 1.8-fold
- Desmoglein 3 decreased by (Desmoglein 3): by 1.9-fold
- S100 Calcium binding protein A8 decreased by [4]: 2.7-fold
- S100 Calcium binding protein A9 decreased by [5]: 1.6-fold
- IL-1RII decreased by [6]: 1.9-fold
- Metallothionein 2 increased by (Metallothionein 2): 3.4-fold
- TNFRSF1A decreased by [7]: 1.4-fold
- IL-1a decreased by (IL-1a (interleukin 1a)): 10.1-fold
- TGF beta increased by [8]: 2.0-fold
- IL-6 decreased by (IL-6 (interleukin 6)): 35.2-fold
- Laminin 1B increased by (Laminin 1B): 1.4-fold with
- IL-8 decreased by (IL-8 (interleukin 8)): 3.8-fold
- Type IV collagen alpha 1 increased by (Type IV collagen alpha 1): 1.7-fold
- Nerve growth factor increased by (Nerve growth factor): 6.7-fold
- TIMP2 increased by [9]: 1.3-fold
- Tissue inhibitor of metalloproteinases 1 increased by [10]: 2.5-fold
